The results in this text go back to ChEMBL document CHEMBL1135773, “Purine and pyrimidine (P2) receptors as drug targets” (J Med Chem, 2002).

For test [1], the target named is T1, P2X purinoceptor 1 (Rattus norvegicus, UniProt P47824).
T1 sequence (P47824 whole entry): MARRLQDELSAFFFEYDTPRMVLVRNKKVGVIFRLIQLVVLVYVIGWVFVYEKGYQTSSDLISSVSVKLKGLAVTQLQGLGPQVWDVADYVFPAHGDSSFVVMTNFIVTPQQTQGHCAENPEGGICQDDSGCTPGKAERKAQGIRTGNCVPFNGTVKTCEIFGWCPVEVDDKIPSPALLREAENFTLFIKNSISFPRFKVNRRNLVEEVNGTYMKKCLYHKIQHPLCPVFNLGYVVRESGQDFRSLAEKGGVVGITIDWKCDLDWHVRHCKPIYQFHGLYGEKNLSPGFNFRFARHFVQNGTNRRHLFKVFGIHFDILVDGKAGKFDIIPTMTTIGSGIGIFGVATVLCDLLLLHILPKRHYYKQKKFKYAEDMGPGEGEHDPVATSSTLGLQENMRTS
Briefly: The compound was evaluated for antagonist activity against recombinant rat P2X purinoceptor 1 (P2X1). It is filed as functional.

Test [2] concerns the target T2, P2X purinoceptor 2 (Rattus norvegicus, UniProt P49653).
T2 sequence (P49653 whole entry): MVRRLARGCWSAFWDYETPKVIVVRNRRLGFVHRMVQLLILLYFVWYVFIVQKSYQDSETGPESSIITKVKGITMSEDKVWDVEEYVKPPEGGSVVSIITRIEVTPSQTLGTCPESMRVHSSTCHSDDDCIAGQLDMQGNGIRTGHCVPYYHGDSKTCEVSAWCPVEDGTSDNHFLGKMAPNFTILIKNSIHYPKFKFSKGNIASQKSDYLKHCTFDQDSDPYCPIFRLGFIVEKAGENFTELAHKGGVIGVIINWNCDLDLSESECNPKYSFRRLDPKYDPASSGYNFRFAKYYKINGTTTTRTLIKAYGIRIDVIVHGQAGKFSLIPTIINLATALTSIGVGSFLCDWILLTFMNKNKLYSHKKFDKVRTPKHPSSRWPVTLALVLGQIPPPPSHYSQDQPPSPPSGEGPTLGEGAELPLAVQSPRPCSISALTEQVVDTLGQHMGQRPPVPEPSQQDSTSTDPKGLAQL
Briefly: The compound was evaluated for antagonist activity against recombinant rat P2X purinoceptor 2 (P2X2) at 30 uM. It is filed as functional.

Test [3] addresses T3, P2X purinoceptor 4 (Rattus norvegicus, UniProt P51577).
T3 sequence (P51577 whole entry): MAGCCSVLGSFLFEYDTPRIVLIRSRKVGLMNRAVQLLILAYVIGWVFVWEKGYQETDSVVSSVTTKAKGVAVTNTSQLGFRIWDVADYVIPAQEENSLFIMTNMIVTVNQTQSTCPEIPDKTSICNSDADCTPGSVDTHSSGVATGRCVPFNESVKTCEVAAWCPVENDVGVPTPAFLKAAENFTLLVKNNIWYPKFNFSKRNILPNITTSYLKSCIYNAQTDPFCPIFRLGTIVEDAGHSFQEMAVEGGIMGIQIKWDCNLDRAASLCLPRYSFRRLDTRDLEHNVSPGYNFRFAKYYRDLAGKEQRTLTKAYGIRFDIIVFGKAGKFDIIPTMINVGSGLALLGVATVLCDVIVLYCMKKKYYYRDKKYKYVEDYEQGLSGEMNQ
Put plainly: The compound was evaluated for antagonist activity against recombinant rat P2X purinoceptor 4 (P2X4) 3 uM. The test is classed as functional.

Test [4] concerns the target T1, P2X purinoceptor 1. Briefly: The compound was evaluated for antagonist activity against P2X purinoceptor 1 (P2X1) like receptor from rat vas deferens. It is filed as functional.
The target of test [5] is P2Y purinoceptor 1 (Cavia porcellus). Briefly: The compound was evaluated for antagonistic activity at P2Y purinoceptor 1 (P2Y1) from guinea pig taenia coli.
The next test addresses P2X purinoceptor 7 (Rattus norvegicus, UniProt Q64663). Put plainly: The compound was evaluated for antagonist activity against P2X purinoceptor 7 (P2X7) in rat parotid acinar cells. The test is classed as functional, cell-based.
Test [6] deals with T2, P2X purinoceptor 2. Briefly: The compound was evaluated for antagonist activity against recombinant rat P2X purinoceptor 2 (P2X2) at 10 uM. It is filed as functional.
A further test has as its target T4, P2X purinoceptor 3 (Homo sapiens, UniProt P56373).
T4 sequence (P56373 whole entry): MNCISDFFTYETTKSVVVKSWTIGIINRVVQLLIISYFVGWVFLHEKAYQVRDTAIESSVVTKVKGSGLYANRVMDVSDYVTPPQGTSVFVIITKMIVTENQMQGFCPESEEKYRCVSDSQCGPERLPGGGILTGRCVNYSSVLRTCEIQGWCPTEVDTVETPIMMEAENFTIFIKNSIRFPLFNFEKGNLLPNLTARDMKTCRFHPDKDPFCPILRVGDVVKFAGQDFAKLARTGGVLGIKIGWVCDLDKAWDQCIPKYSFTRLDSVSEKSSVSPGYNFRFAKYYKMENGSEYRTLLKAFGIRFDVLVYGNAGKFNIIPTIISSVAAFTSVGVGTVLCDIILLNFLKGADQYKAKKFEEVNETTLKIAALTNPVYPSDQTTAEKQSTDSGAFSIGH
Briefly: The compound was evaluated for antagonist activity against recombinant human P2X purinoceptor 3 (P2X3 ). It is filed as functional.

In test [7] the target is T5, P2X purinoceptor 4 (Homo sapiens, UniProt Q99571).
T5 sequence (Q99571 whole entry): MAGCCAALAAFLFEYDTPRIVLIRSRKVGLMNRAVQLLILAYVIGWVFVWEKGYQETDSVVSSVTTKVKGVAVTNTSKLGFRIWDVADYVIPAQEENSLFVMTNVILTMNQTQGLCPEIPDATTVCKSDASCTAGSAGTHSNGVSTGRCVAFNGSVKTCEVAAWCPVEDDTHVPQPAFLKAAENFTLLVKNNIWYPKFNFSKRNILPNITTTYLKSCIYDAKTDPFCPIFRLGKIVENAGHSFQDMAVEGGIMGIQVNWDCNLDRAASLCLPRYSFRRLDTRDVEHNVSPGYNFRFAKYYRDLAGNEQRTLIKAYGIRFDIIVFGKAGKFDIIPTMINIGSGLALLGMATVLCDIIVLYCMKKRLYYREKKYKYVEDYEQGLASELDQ
Briefly: The compound was evaluated for antagonist activity against recombinant human P2X purinoceptor 4 (P2X4). The test is classed as functional.

Test [8] addresses T6, P2X purinoceptor 1 (Homo sapiens, UniProt P51575).
T6 sequence (P51575 whole entry): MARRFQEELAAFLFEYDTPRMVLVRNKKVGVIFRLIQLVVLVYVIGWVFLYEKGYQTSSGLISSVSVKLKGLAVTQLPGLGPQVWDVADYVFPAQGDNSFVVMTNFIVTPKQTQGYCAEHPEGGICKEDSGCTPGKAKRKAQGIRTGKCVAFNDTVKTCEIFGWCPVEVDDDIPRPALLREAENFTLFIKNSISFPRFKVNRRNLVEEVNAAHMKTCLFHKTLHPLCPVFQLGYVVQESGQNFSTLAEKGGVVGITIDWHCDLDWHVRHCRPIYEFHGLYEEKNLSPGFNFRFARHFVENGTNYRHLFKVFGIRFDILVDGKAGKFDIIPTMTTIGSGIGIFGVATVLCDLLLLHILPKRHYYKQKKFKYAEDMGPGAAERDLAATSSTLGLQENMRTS
Briefly: The compound was evaluated for antagonist activity against recombinant human P2X purinoceptor 1 (P2X1 ). The test is classed as functional.

The target in the next test is P2Y purinoceptor 4 (Homo sapiens, UniProt P51582). Briefly: The compound was evaluated for antagonist activity against phospholipase C coupled recombinant human P2Y purinoceptor 4 (P2Y4). It is filed as functional.
The target in test [9] is T2, P2X purinoceptor 2. Briefly: Antagonist activity against recombinant rat receptor P2X purinoceptor 2 (P2X2) at 10 uM, expressed in Xenopus oocytes. The test is classed as functional, cell-based, Oocyte.
Test [10] has as its target T6, P2X purinoceptor 1. Put plainly: Antagonist activity against recombinant human P2X purinoceptor 1 (P2X1 ). It is filed as functional.
For the next test, the target named is P2Y purinoceptor 12 (Rattus norvegicus, UniProt Q9EPX4). Briefly: Antagonist activity against phospholipase C coupled rat P2Y purinoceptor 12 (P2Y12). It is filed as functional.
The next test deals with P2Y purinoceptor 6 (Homo sapiens, UniProt Q15077). Put plainly: The compound was evaluated for agonist activity against phospholipase C coupled recombinant human P2Y purinoceptor 6 (P2Y6). The test is classed as functional.
For a further test, the target named is P2Y purinoceptor 2 (Homo sapiens, UniProt P41231). Briefly: Evaluated for agonist activity against phospholipase C coupled recombinant human P2Y purinoceptor 2 (P2Y2). It is filed as functional.
Test [11] concerns the target P2X purinoceptor 7 (Homo sapiens) (UniProt Q99572). Put plainly: The compound was evaluated for antagonist activity against recombinant human P2X purinoceptor 7 (P2X7). It is filed as functional.
The target in test [12] is T3, P2X purinoceptor 4. Put plainly: Antagonist activity against recombinant rat P2X purinoceptor 4 (P2X4) at 3 uM, expressed in Xenopus oocytes. The test is classed as functional, cell-based, Oocyte.

SMILES strings stand for the structures.

P2Y purinoceptor 6, sequence (Q15077 whole entry): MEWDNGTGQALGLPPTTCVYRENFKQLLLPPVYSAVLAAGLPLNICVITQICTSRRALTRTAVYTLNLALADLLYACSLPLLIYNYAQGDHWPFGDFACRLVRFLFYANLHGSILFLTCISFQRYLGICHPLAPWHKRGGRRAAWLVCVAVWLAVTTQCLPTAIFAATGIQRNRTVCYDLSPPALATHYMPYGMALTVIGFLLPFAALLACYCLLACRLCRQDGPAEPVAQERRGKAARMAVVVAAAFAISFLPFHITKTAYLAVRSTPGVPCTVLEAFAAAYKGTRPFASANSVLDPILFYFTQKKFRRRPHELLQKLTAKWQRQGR
P2X purinoceptor 7 (Homo sapiens), sequence (Q99572 whole entry): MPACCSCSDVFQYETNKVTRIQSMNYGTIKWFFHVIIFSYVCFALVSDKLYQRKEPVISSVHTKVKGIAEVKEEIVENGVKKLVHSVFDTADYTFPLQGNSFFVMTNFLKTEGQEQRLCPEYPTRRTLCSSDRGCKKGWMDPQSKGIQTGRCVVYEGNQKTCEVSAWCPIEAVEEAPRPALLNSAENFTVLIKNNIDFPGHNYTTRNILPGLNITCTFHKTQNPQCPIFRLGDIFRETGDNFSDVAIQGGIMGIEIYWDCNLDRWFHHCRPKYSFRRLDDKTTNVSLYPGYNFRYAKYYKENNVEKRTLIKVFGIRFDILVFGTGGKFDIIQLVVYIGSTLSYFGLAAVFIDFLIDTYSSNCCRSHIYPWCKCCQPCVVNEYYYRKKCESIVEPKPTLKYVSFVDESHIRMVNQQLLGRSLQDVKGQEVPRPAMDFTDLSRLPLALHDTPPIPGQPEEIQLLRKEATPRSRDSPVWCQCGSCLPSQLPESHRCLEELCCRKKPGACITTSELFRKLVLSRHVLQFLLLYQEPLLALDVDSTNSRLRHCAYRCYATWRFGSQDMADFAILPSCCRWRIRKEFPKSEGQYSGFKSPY
P2X purinoceptor 7, sequence (Q64663 whole entry): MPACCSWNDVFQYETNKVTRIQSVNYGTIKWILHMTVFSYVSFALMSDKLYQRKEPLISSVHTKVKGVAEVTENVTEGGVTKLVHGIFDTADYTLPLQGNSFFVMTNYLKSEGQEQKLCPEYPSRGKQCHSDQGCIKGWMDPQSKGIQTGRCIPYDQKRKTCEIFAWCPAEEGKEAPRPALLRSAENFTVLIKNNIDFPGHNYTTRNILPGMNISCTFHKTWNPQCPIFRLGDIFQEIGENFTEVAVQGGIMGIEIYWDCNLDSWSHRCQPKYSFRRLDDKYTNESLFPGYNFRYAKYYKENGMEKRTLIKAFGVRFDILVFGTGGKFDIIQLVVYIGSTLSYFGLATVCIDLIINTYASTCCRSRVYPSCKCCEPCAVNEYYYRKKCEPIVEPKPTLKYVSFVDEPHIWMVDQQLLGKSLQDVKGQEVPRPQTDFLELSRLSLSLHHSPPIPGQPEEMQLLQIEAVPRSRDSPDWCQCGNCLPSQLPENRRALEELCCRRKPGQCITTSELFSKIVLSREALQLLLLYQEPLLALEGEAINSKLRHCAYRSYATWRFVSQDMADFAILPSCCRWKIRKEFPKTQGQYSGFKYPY
P2Y purinoceptor 12, sequence (Q9EPX4 whole entry): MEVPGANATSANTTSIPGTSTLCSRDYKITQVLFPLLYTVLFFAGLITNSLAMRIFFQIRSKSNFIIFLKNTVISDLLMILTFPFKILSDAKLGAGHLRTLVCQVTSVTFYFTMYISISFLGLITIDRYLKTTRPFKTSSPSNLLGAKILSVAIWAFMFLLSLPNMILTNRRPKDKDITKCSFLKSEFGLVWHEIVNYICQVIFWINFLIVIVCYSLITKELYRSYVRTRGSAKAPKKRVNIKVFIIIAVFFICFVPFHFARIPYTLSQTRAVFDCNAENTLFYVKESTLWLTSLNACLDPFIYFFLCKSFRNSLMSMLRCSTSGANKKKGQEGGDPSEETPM
P2Y purinoceptor 2, sequence (P41231 whole entry): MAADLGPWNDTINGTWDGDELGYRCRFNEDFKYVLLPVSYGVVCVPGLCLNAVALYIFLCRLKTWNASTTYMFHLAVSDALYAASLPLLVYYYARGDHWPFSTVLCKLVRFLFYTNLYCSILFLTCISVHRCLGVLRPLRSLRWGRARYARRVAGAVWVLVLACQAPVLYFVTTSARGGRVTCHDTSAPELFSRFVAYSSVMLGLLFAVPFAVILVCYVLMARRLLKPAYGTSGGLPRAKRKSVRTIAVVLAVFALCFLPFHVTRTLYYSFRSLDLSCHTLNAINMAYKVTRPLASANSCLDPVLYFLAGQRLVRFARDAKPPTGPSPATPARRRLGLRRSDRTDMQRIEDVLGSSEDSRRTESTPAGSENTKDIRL
P2Y purinoceptor 4, sequence (P51582 whole entry): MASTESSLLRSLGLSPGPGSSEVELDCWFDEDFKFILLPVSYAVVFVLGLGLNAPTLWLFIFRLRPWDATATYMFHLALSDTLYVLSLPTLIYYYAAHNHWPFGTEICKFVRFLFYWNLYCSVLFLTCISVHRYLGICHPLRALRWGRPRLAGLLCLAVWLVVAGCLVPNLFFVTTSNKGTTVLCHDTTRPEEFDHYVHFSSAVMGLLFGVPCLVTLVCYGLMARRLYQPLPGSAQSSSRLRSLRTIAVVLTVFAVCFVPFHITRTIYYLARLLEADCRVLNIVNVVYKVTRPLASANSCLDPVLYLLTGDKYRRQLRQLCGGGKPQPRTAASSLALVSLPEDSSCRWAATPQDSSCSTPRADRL

Turning to `Cc1ncc2c(c1O)COP(=O)(O)OC2`, the results for the 50% effective concentration (EC50) on P2X purinoceptor 1 [1] and at P2X purinoceptor 2 [2] were 10.2 µM and 100 µM, respectively. Besides, the IC50 on P2X purinoceptor 4 [3] is greater than 100 µM.
As to `Nc1c(S(=O)(=O)O)cc(Nc2ccc(Nc3nc(Cl)nc(Cl)n3)cc2S(=O)(=O)O)c2c1C(=O)c1ccccc1C2=O`, the IC50 is 1.6 µM on P2X purinoceptor 1 [4] and less than 1 µM in test [5].
At P2X purinoceptor 7, `O=S(=O)(O)c1cc(N=C=S)ccc1/C=C/c1ccc(N=C=S)cc1S(=O)(=O)O` showed an IC50 of 35 µM.
Take `O=C(Nc1cccc(C(=O)Nc2ccc(S(=O)(=O)O)c3cc(S(=O)(=O)O)cc(S(=O)(=O)O)c23)c1)Nc1cccc(C(=O)Nc2ccc(S(=O)(=O)O)c3cc(S(=O)(=O)O)cc(S(=O)(=O)O)c23)c1`: the IC50 at P2X purinoceptor 2 [6] is greater than 50 µM; on P2X purinoceptor 3 it was 28.5 µM; at P2X purinoceptor 4 [7], greater than 100 µM; at P2X purinoceptor 1 [8] it was 0.21 µM.
`CNc1ncnc2c1ncn2[C@H]1C[C@H](OP(=O)(O)O)[C@@H](COP(=O)(O)O)O1`: the EC50 on P2Y purinoceptor 4 is greater than 100 µM; at P2X purinoceptor 2 [9], greater than 10 µM; at P2X purinoceptor 1 [10], 1.15 µM; at P2Y purinoceptor 12, greater than 100 µM; on P2Y purinoceptor 6, greater than 100 µM; on P2Y purinoceptor 2, greater than 100 µM. The EC50 at P2X purinoceptor 4 [12] is greater than 10 µM. Moreover, the IC50 in [11] was greater than 30 µM.
